Results taken from ChEMBL document CHEMBL1201862, “PubChem BioAssay data set” (2004).
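The compound was tested at five concentrations on cells cultured in 96-well plates, with a 48-hour exposure period. Abbreviation: GI50, concentration required for 50% inhibition of growth.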 Calls of active or inactive are those of the source. No stated cut-off is given here; in the data, active = GI50 up to about 1.1 µM and inactive = higher.

Columns and labels:
Assay in all cases: inhibition of tumour cell growth, NCI panel, 48 h
NCI-H226 = tested on: NCI-H226
RPMI-8226 = tested on: RPMI-8226
UACC-257 = tested on: UACC-257
RXF 393 = tested on: RXF 393
M19-MEL = tested on: M19-MEL
CCRF-CEM = tested on: CCRF-CEM
KM12 = tested on: KM12
Malme-3M = tested on: Malme-3M
SK-MEL-28 = tested on: SK-MEL-28
HT-29 = tested on: HT-29
SN12C = tested on: SN12C
SK-MEL-5 = tested on: SK-MEL-5
TK-10 = tested on: TK-10
UACC-62 = tested on: UACC-62
HCT-15 = tested on: HCT-15
A498 = tested on: A498
NCI/ADR-RES = tested on: NCI/ADR-RES
T47D = tested on: T47D
HCC 2998 = tested on: HCC 2998
MDA-N = tested on: MDA-N

Row | Compound | GI50 (NCI-H226) | GI50 (RPMI-8226) | GI50 (UACC-257) | GI50 (RXF 393) | GI50 (M19-MEL) | GI50 (CCRF-CEM) | GI50 (KM12) | GI50 (Malme-3M) | GI50 (SK-MEL-28) | GI50 (HT-29) | GI50 (SN12C) | GI50 (SK-MEL-5) | GI50 (TK-10) | GI50 (UACC-62) | GI50 (HCT-15) | GI50 (A498) | GI50 (NCI/ADR-RES) | GI50 (T47D) | GI50 (HCC 2998) | GI50 (MDA-N)
1 | CN(C(=O)c1ccco1)C(=S)N1CCN(c2ccccc2)CC1 | 71.3 µM (inactive) | > 100 µM (inactive) | > 100 µM (inactive) | > 100 µM (inactive) | > 100 µM (inactive) | > 100 µM (inactive) | > 100 µM (inactive) | > 100 µM (inactive) | > 100 µM (inactive) | > 100 µM (inactive) | > 100 µM (inactive) | > 100 µM (inactive) | > 100 µM (inactive) | > 100 µM (inactive) | > 100 µM | – | – | – | – | –
2 | OC12CCC3(OC4CCCCO4)c4ccccc4C3C1c1ccccc12 (stereo not given) | > 100 µM (inactive) | 36 µM (inactive) | 91.2 µM (inactive) | 44.6 µM (inactive) | 90.4 µM (inactive) | 58.9 µM (inactive) | 54.6 µM (inactive) | > 100 µM (inactive) | 76 µM (inactive) | 43.9 µM (inactive) | 87.7 µM (inactive) | 48.5 µM (inactive) | > 100 µM (inactive) | 56.8 µM (inactive) | 24.2 µM | – | – | – | – | –
3 | c1ccc(SC(Sc2ccccc2)=C2CCC2)cc1 | – | > 100 µM (inactive) | > 100 µM (inactive) | > 100 µM (inactive) | > 100 µM (inactive) | > 100 µM (inactive) | > 100 µM (inactive) | – | > 100 µM (inactive) | – | > 100 µM (inactive) | > 100 µM (inactive) | > 100 µM (inactive) | 65 µM (inactive) | > 100 µM | > 100 µM (inactive) | – | – | – | –
4 | CC(=O)Nc1ccc2cc3[nH]c4cc(NC(C)=O)ccc4c3nc2c1 | > 100 µM (inactive) | > 100 µM (inactive) | > 100 µM (inactive) | > 100 µM (inactive) | – | 38 µM (inactive) | 21.7 µM (inactive) | > 100 µM (inactive) | > 100 µM (inactive) | > 100 µM (inactive) | > 100 µM (inactive) | > 100 µM (inactive) | > 100 µM (inactive) | > 100 µM (inactive) | > 100 µM | > 100 µM (inactive) | > 100 µM (inactive) | 31.3 µM (inactive) | > 100 µM (inactive) | > 100 µM (inactive)
5 | Cc1nc2sccn2c1C(=O)NN | > 100 µM (inactive) | > 100 µM (inactive) | > 100 µM (inactive) | > 100 µM (inactive) | > 100 µM (inactive) | > 100 µM (inactive) | > 100 µM (inactive) | > 100 µM (inactive) | > 100 µM (inactive) | > 100 µM (inactive) | > 100 µM (inactive) | > 100 µM (inactive) | > 100 µM (inactive) | > 100 µM (inactive) | > 100 µM | – | – | – | > 100 µM (inactive) | –
6 | O=c1[nH]nc(-c2ccccc2)n1/N=C/c1ccc([N+](=O)[O-])o1 | 9.44 µM (inactive) | 2.04 µM (inactive) | 4.92 µM (inactive) | 0.897 µM (active) | – | 1.09 µM (active) | 6.65 µM (inactive) | 4.26 µM (inactive) | 4.92 µM (inactive) | 2.49 µM (inactive) | 4.37 µM (inactive) | 14.8 µM (inactive) | 52.8 µM (inactive) | 5.21 µM (inactive) | 2.21 µM | 9.12 µM (inactive) | 5.85 µM (inactive) | 13.7 µM (inactive) | 5.26 µM (inactive) | 3.25 µM (inactive)
7 | COC(=O)C(=O)C(C(=O)C(=O)Nc1ccccc1[N+](=O)[O-])c1nc2ccc([N+](=O)[O-])cc2nc1O (stereo not given) | > 100 µM (inactive) | > 100 µM (inactive) | > 100 µM (inactive) | > 100 µM (inactive) | > 100 µM (inactive) | > 100 µM (inactive) | > 100 µM (inactive) | > 100 µM (inactive) | > 100 µM (inactive) | > 100 µM (inactive) | > 100 µM (inactive) | 46.2 µM (inactive) | > 10 µM (inactive) | > 100 µM (inactive) | > 100 µM | > 100 µM (inactive) | – | – | – | –
8 | C/C(=N/O)c1ccc2c(c1)/C(=N/O)c1cc(/C(C)=N/O)ccc1-2 | 11.2 µM (inactive) | 26.5 µM (inactive) | 2.39 µM (inactive) | 23 µM (inactive) | 19.4 µM (inactive) | – | 16.3 µM (inactive) | 11 µM (inactive) | 17.3 µM (inactive) | 12.6 µM (inactive) | 16.3 µM (inactive) | 14.9 µM (inactive) | > 10 µM (inactive) | 14.2 µM (inactive) | 14.1 µM | – | – | – | 15.3 µM (inactive) | –
9 | O=C(CC(=O)N1N=C(c2ccccc2)C(/N=N/c2ccc(S(=O)(=O)CCOS(=O)(=O)O)cc2)C1=O)Nc1ccc(Cl)cc1 (stereo not given) | > 100 µM (inactive) | > 100 µM (inactive) | > 100 µM (inactive) | > 100 µM (inactive) | – | 49.5 µM (inactive) | 21.7 µM (inactive) | > 100 µM (inactive) | > 100 µM (inactive) | > 100 µM (inactive) | 86.5 µM (inactive) | > 100 µM (inactive) | > 100 µM (inactive) | > 100 µM (inactive) | 8.61 µM | > 100 µM (inactive) | > 100 µM (inactive) | > 100 µM (inactive) | 59.4 µM (inactive) | > 100 µM (inactive)
10 | COc1ccc(NC(=O)CC/C(CC(=O)c2ccccc2Cl)=N\Nc2nnc(C)n2N)cc1 | > 100 µM (inactive) | – | > 100 µM (inactive) | > 100 µM (inactive) | > 100 µM (inactive) | > 100 µM (inactive) | > 100 µM (inactive) | > 100 µM (inactive) | > 100 µM (inactive) | > 100 µM (inactive) | > 100 µM (inactive) | – | > 100 µM (inactive) | > 100 µM (inactive) | > 100 µM | – | – | – | > 100 µM (inactive) | –
11 | C=CCC1C(=O)CC2(C)CC(=O)C(CC=C)C12C (stereo not given) | > 100 µM (inactive) | > 100 µM (inactive) | > 100 µM (inactive) | > 100 µM (inactive) | > 100 µM (inactive) | > 100 µM (inactive) | > 100 µM (inactive) | > 100 µM (inactive) | > 100 µM (inactive) | > 100 µM (inactive) | > 100 µM (inactive) | > 100 µM (inactive) | > 100 µM (inactive) | > 100 µM (inactive) | > 100 µM | – | – | – | > 100 µM (inactive) | –
12 | COc1ccc(C(=O)C(CC2C(=O)NC(=O)NC2=O)c2ccc(OC)cc2)cc1 (stereo not given) | > 100 µM (inactive) | – | > 100 µM (inactive) | > 100 µM (inactive) | > 100 µM (inactive) | > 100 µM (inactive) | > 100 µM (inactive) | > 100 µM (inactive) | > 100 µM (inactive) | > 100 µM (inactive) | > 100 µM (inactive) | > 100 µM (inactive) | > 100 µM (inactive) | > 100 µM (inactive) | > 100 µM | > 100 µM (inactive) | – | – | > 100 µM (inactive) | –
13 | CN(/N=C\c1ccnc2ccccc12)c1ccccc1 | – | > 100 µM (inactive) | 20 µM (inactive) | 30.2 µM (inactive) | 26.1 µM (inactive) | 10 µM (inactive) | 19 µM (inactive) | 23.8 µM (inactive) | 29.8 µM (inactive) | 18.9 µM (inactive) | 29.9 µM (inactive) | 17.3 µM (inactive) | 35.3 µM (inactive) | 19.5 µM (inactive) | 17.1 µM | 21 µM (inactive) | – | – | – | –
14 | NC(=O)c1nc(-c2ccc(Cl)c(Cl)c2)nc2ccccc12 | 18 µM (inactive) | > 21.1 µM (inactive) | > 29.1 µM (inactive) | 12.5 µM (inactive) | > 38.1 µM (inactive) | > 100 µM (inactive) | > 100 µM (inactive) | 4.92 µM (inactive) | – | > 100 µM (inactive) | > 100 µM (inactive) | > 49.3 µM (inactive) | 22.6 µM (inactive) | > 24.9 µM (inactive) | > 100 µM | 16.1 µM (inactive) | – | – | – | –
15 | O=C(O)c1cccc(CC(Br)C(=O)O)c1 (stereo not given) | > 100 µM (inactive) | > 100 µM (inactive) | > 100 µM (inactive) | > 100 µM (inactive) | – | > 100 µM (inactive) | > 100 µM (inactive) | > 100 µM (inactive) | > 100 µM (inactive) | > 100 µM (inactive) | > 100 µM (inactive) | > 100 µM (inactive) | > 100 µM (inactive) | > 100 µM (inactive) | > 100 µM | > 100 µM (inactive) | > 100 µM (inactive) | > 100 µM (inactive) | > 100 µM (inactive) | > 100 µM (inactive)
16 | CC(=O)OC1C(C)OC(OC2C[C@](O)(C(C)=O)Cc3c(O)c4c(c(O)c32)C(=O)c2ccccc2C4=O)C(F)C1OC(C)=O (stereo not given in full) | 0.335 µM (active) | 0.175 µM (active) | 1.8 µM (inactive) | 2.74 µM (inactive) | – | 0.197 µM (active) | 1.85 µM (inactive) | 1.14 µM (inactive) | 3.4 µM (inactive) | 1.42 µM (inactive) | 0.281 µM (active) | 0.408 µM (active) | 1.6 µM (inactive) | 0.387 µM (active) | 0.358 µM | 0.791 µM (active) | 1.45 µM (inactive) | 0.522 µM (active) | 1.91 µM (inactive) | 1.88 µM (inactive)
17 | COc1cc(CC(C)C(C)Cc2ccc(O)c(OC)c2)ccc1O (stereo not given) [DIHYDROGUAIARETIC ACID] | 14.2 µM (inactive) | 7.93 µM (inactive) | 15.8 µM (inactive) | 13.1 µM (inactive) | – | 13.3 µM (inactive) | 14.7 µM (inactive) | 13.1 µM (inactive) | 21 µM (inactive) | 22.5 µM (inactive) | 15.4 µM (inactive) | 8.55 µM (inactive) | 34 µM (inactive) | 16.7 µM (inactive) | 20 µM | 18.5 µM (inactive) | 16.2 µM (inactive) | 16.3 µM (inactive) | 18.5 µM (inactive) | 17.3 µM (inactive)
